This passage reports IC50 results from US12509467B2 (Hoffmann-La Roche Inc., priority 2020, dated 2025).

Each structure is given as a SMILES string.

T1 sequence (Q8N884 161-522): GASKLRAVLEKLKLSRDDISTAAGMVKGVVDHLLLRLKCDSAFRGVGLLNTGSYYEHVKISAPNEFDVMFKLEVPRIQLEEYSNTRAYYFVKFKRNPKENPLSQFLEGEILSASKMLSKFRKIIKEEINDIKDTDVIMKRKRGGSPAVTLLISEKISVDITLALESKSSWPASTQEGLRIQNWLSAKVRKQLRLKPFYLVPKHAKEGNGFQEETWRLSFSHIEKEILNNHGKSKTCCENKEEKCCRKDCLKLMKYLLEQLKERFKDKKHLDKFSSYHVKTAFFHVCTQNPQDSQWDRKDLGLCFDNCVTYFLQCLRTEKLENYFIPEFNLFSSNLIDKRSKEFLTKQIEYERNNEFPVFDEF

One test addresses T1, human cGAS (residues 161-522) (Homo sapiens, UniProt Q8N884).
T1 construct: Recombinantly expressed purified human cGAS (residues 161-522) was used at 25 nM; made in house
Briefly: cGAS Activity Assay—Malachite Green. Format: biochemical.
Settings: not given
As to the method: Compounds were tested for cGAS inhibition in a coupled enzymatic assay based on Phosphate detection by Malachite Green. Final assay conditions were 20 mM TRIS pH 7.5 (Applichem), 5 mM MgCl2 (Sigma) and 0.01% BSA (Sigma) supplemented with 80 μM ATP (Sigma), 80 μM GTP (Sigma) and 100 nM Interferon Stimulating DNA (ISD) (Microsynth).
1 μL of DMSO dilution series was transferred to 32.3 μL reaction buffer, mixed by pipetting up/down, spun for 1 minute at 3000 rpm and was visually inspected for precipitation. 5 μL of 3-fold enzyme stock solution were transferred to an empty 384-well Black/Clear Flat Bottom Polystyrene NBS (Corning) rows 3-24. Rows 1-2 were filled with assay buffer. Plates were spun 10 seconds at 1000 rpm (164×g). 5 μL of compound intermediate dilution was added and mixed by pipetting up/down to rows 3-24. Rows 1-2 were filled with 3.1% DMSO assay buffer. Plates were spun 10 seconds at 1000 rpm (164×g). 5 μL 3-fold Nucleotide/DNA mix was added to all wells to start the reaction. Plates were spun 10 seconds at 1000 rpm (164×g) and incubated for 4 hour at room temperature (RT) in the dark. 5 μL 4 U/mL PPase (Sigma) were added to all wells. Plates spun 10 seconds at 1000 rpm (164×g). 10 μL BioMol green Solution (Enzo Life Sciences) was added to all wells. Plates spun 10 seconds at 1000 rpm (164×g) and incubated 30 minutes at RT in the dark. Absorbance data was collected 620 nm on an EnVision Multilable Reader (Perkin Elmer) and the following measurement settings were used: excitation filter photometric was 620 nm; excitation from the top; measurement height was 1 mm; number of flashes was 30; number of flashes integrated was 1.
All plates are checked for abnormalities and outliers in the Blank Control (no protein, row 1) and the Neutral Control (no compound, row 2) are excluded using the 3*SD rule.
Table 5 provides IC50 values (μM) for cGAS inhibition obtained for particular examples of the present invention as measured by the above-described assay.
What is called IC50 is the point on the concentration scale where inhibition reaches its midpoint. `CCCc1cc(=O)n2nc(NCc3cnc(N4CCN(C)CC4)cc3Cl)nc2[nH]1` [Example 100] came in with an IC50 of 5220 nM. Same read-out and setting: for `CCCc1cc(=O)n2nc(NCc3ccc(OCC)cc3Cl)nc2[nH]1` [Example 11] the value was 1340 nM. On the same count and under the same terms, to `CCCc1cc(=O)n2nc(NCc3ccc(Cl)cc3F)nc2[nH]1` [Example 62] belongs 4040 nM; to `CCCc1cc(=S)n2nc(NCc3cc(-c4ccn(C)n4)ccc3Cl)nc2[nH]1` [Example 40, 2-[[2-chloro-5-(1-methylpyrazol-3-yl)phenyl]methylamino]-5-propyl-4H-[1,2,4]triazolo[1,5-a]-pyrimidine-7-thione], 869 nM. Still for that read-out and setting: to `O=c1cc(CCc2ccccc2)[nH]c2nc(NCc3ccc(Cl)cc3Cl)nn12` [Example 72, 2-[(2,4-dichlorophenyl)meth-ylamino]-5-(2-phenylethyl)-4H-[1,2,4]triazolo[1,5-a]-pyrimidin-7-one] belongs 2110 nM; to `CCCc1cc(=O)n2nc(NCc3cccc(-c4ccn(C)n4)c3)nc2[nH]1` [Example 13, 2-[[3-(1-methylpyrazol-3-yl)-phenyl]methylamino]-5-propyl-4H-[1,2,4]triazolo[1,5-a]-pyrimidin-7-one], 1940 nM; to `CCCc1cc(=O)n2nc(OCc3cc(-c4cnn(C)c4)ccc3Cl)nc2[nH]1` [Example 91, 2-[[2-Chloro-5-(1-methylpyrazol-4-yl)phenyl]methoxyl]-5-propyl-4H-[1,2,4]triazolo[1,5-a]pyrimidin-7-one], 2900 nM.

`CCCc1cc(=O)n2nc(NCc3cc(-c4ccncc4)ccc3Cl)nc2[nH]1` [Example 25, 2-[[2-chloro-5-(4-pyridyl)phen-yl]methylamino]-5-propyl-4H-[1,2,4]triazolo[1,5-a]pyrimidin-7-one] registered an IC50 of 287 nM. Still for that read-out and setting: for `CC(C)c1cc(=O)n2nc(NCc3ccc(Cl)cc3Cl)nc2[nH]1` [Example 61, 2-[(2,4-dichlorophenyl)methyl-amino]-5-isopropyl-4H-[1,2,4]-triazolo[1,5-a]pyrimidin-7-one] the value was 2740 nM; for `CCCCc1cc(=O)n2nc(NCc3ccc(Cl)cc3Cl)nc2[nH]1` [Example 35, 5-butyl-2-[(2,4-dichlorophen-yl)methylamino]-4H-[1,2,4]-triazolo-[1,5-a]pyrimidin-7-one], 1320 nM; for `CCCc1cc(=O)n2nc(NCc3cc(-c4cccnc4)ccc3Cl)nc2[nH]1` [Example 21, 2-[[2-chloro-5-(3-pyridyl)phen-yl]-methylamino]-5-propyl-4H-[1,2,4]triazolo[1,5-a]pyrimidin-7-one], 744 nM.

The test is the same for the next values; noted with them: cGAS inhibition; 25 nM cGAS, 80 μM ATP, 80 μM GTP, 100 nM ISD, 4 hour at RT, Malachite Green phosphate detection; read-out: IC50 cGAS.
With `Cn1ccc(-c2ccc(F)c(CNc3nc4[nH]c(C(F)(F)F)cc(=O)n4n3)c2)n1` [Example 20, 2-[[2-fluoro-5-(1-methylpyrazol-3-yl)phenyl]methylamino]-5-(trifluoromethyl)-4H-[1,2,4]-triazolo[1,5-a]pyrimidin-7-one], the IC50 came out at 1240 nM.

On to `CCCc1cc(=O)n2nc(NCc3ccc(Cl)cc3Cl)nc2[nH]1` [Example 58, 2-[(2,4-Dichlorophenyl)methylamino]-5-propyl-4H-[1,2,4]triazolo[1,5-a]pyrimidin-7-one], for which the IC50 was determined as 1720 nM. For `CCCc1cc(=O)n2nc(NCc3ccc(OCC)cc3)nc2[nH]1` [Example 54, 2-[(4-ethoxyphenyl)methyl-amino]-5-propyl-4H-[1,2,4]-triazolo[1,5-a]pyrimidin-7-one], the IC50 stood at 2200 nM. The same measure, in the same setting: to `CCCc1cc(=O)n2nc(NCc3cc(N4CCN(C)CC4)ncc3Cl)nc2[nH]1` [Example 95, 2-[[5-chloro-2-(4-methyl-piperazin-1-yl)-4-pyridyl]-methylamino]-5-propyl-4H-[1,2,4]triazolo[1,5-a]pyrim-idin-7-one] belongs 6670 nM; to `CCCc1cc(=O)n2nc(NC(C)c3ccc(Cl)cc3Cl)nc2[nH]1` (centres unmarked) [Example 76, 2-[1-(2,4-dichlorophenyl)ethyl-amino]-5-propyl-4H-[1,2,4]-triazolo[1,5-a]pyrimidin-7-one], 6720 nM. Still for that read-out and setting: for `CCCc1cc(=O)n2nc(NCc3ccc(-c4ccccc4)cc3F)nc2[nH]1` [Example 1, 2-[(2-Fluoro-4-phenyl-phenyl)methylamino]-5-propyl-4H-[1,2,4]triazolo[1,5-a]pyrimidin-7-one] the value was 744 nM; for `O=c1cc(C2CC2)[nH]c2nc(NCc3ccc(Cl)cc3Cl)nn12` [Example 59, 5-cyclopropyl-2-[(2,4-dichloro-phenyl)methylamino]-4H-[1,2,4]triazolo[1,5-a]pyrimidin-7-one], 3780 nM.

`CCCc1cc(=O)n2nc(NCc3cc(N4CC(OC)C4)ncc3Cl)nc2[nH]1` [Example 93, 2-[[5-Chloro-2-(3-methoxyazetidin-1-yl)-4-pyridyl]methylamino]-5-propyl-4H-[1,2,4]triazolo[1,5-a]pyrimidin-7-one]: the IC50 is 650 nM.

On to `Cc1cc(=O)n2nc(NCc3cc(-c4ccn(C)n4)ccc3Cl)nc2[nH]1` [Example 34, 2-[[2-chloro-5-(1-methylpyrazol-3-yl)phenyl]methylamino]-5-methyl-4H-[1,2,4]triazolo[1,5-a]-pyrimidin-7-one], for which the IC50 was found to be 2110 nM. On the same count and under the same terms, to `CCCCc1cc(=O)n2nc(NCc3cc(-c4ccn(C)n4)ccc3Cl)nc2[nH]1` [Example 32, 5-butyl-2-[[2-chloro-5-(1-methyl-pyrazol-3-yl)phenyl]methyl-amino]-4H-[1,2,4]triazolo[1,5-a]pyrimidin-7-one] belongs 162 nM; to `CCCc1cc(=O)n2nc(OCc3ccc(-c4ccccc4)cc3Cl)nc2[nH]1` [Example 92, 2-1(2-Chloro-4-phenyl-phenyl)methoxyl-5-propyl-4H-[1,2,4]triazolo[1,5-a]pyrimidin-7-one], 2180 nM. Same read-out and setting: to `CCCc1cc(=O)n2nc(NCc3cc(N4CCOCC4)ncc3Cl)nc2[nH]1` [Example 96, 2-[(5-Chloro-2-morpholino-4-pyridyl)methylamino]-5-propyl-4H-[1,2,4]triazolo[1,5-a]pyrimidin-7-one] belongs 1160 nM; to `CCCCc1cc(=O)n2nc(NCc3ccn(-c4ccccc4)n3)nc2[nH]1` [Example 47, 5-butyl-2-[(1-phenylpyrazol-3-yl)methylamino]-4H-[1,2,4]-triazolo[1,5-a]pyrimidin-7-one], 2010 nM; to `Cn1ccc(-c2ccc(CNc3nc4[nH]c(C(F)(F)F)cc(=O)n4n3)cc2)n1` [Example 18, 2-[[4-(1-methylpyrazol-3-yl)-phenyl]methylamino]-5-(trifluoromethyl)-4H-[1,2,4]-triazolo[1,5-a]pyrimidin-7-one], 2820 nM. `CCCc1cc(=O)n2nc(NCc3ccc(-c4ccccc4)cc3)nc2[nH]1` [Example 67, 2-[(4-phenylphenyl)methyl-amino]-5-propyl-4H-[1,2,4]-triazolo[1,5-a]pyrimidin-7-one]: the IC50 amounted to 672 nM.

Turning to `CCCc1cc(=O)n2nc(NCc3cc(NC(=O)c4ccon4)ncc3Cl)nc2[nH]1` [Example 90, N-[5-Chloro-4-[[(7-oxo-5-propyl-4H-[1,2,4]triazolo[1,5-a]pyrimidin-2-yl)amino]methyl]-2-pyridyl]isoxazole-3-carboxamide], the IC50 was 807 nM. The same measure, in the same setting: to `O=c1cc(CNc2ccccc2F)[nH]c2nc(NCc3ccccc3Cl)nn12` [Example 80, 2-[(2-Chlorophenyl)methylamino]-5-1(2-fluoroanilino)methyl1-4H-11,2,41triazolo[1,5-a]pyrimidin-7-one] belongs 1920 nM; to `CCCCc1cc(=O)n2nc(NCc3cc(C4CC4)on3)nc2[nH]1` [Example 49, 5-butyl-2-[(5-cyclopropylisox-azol-3-yl)methylamino]-4H-[1,2,4]triazolo[1,5-a]pyrimidin-7-one], 4660 nM.

Take `Cn1ccc(-c2ccc(Cl)c(CNc3nc4[nH]c(CCCC(F)F)cc(=O)n4n3)c2)n1` [Example 50, 2-[[2-chloro-5-(1-methylpyrazol-3-yl)phenyl]methylamino]-5-(4,4-difluorobutyl)-4H-[1,2,4]-triazolo[1,5-a]pyrimidin-7-one]: the IC50 was 263 nM.

For `CCCc1cc(=O)n2nc(NCc3ccc(C#N)cc3Cl)nc2[nH]1` [Example 7, 3-chloro-4-[[(7-oxo-5-propyl-4H-[1,2,4]triazolo[1,5-a]-pyrimidin-2-yl)amino]methyl]-benzonitrile], the IC50 was 2420 nM. The same measure, in the same setting: for `CCCc1cc(=O)n2nc(NCc3cc(-c4ccccc4)ccc3Cl)nc2[nH]1` [Example 23, 2-[(2-chloro-5-phenylphenyl)-methylamino]-5-propyl-4H-[1,2,4]triazolo[1,5-a]pyrimidin-7-one] the value was 2440 nM.
